Patent US7855205B2, “Pyrimidinyl substituted fused-pyrrolyl compounds useful in treating kinase disorders” (Janssen Pharmaceutica NV, priority 2004, dated 2010)
Where two headings read alike, the source gives them in different places.

Experiments:
[1] = biological target: T1, VEGF-R2 (Rattus norvegicus, UniProt O08775); test: VEGF-R2 Screening Assay; format: biochemical; settings: 33P-γ-ATP incorporation, 10 μM ATP
T1 construct: polyhistidine (N)
Experimental: Then 1 μL of test compound stock in 100% DMSO was added to the wells resulting in a final concentration of 1% DMSO in the reaction with a 100 μL final reaction volume. The CDK1:Cyclin-B protein was then diluted in 50 mM Tris-HCl pH=8.0, 0.1% BSA at a concentration of 1 ng per μL and 30 μL (30 ng enzyme per test well) was added to each well to initiate the reaction. The reaction was incubated for one hour at 30° C. At the end of the 1 h incubation, the reaction was terminated by aspirating the mixture from the plate and washing the wells twice with PBS containing 100 mM EDTA. The histone-H1 biotinylated peptide substrate became immobilized on the Flashplate™ and the incorporation of ^33P-γ-ATP was measured by reading the plate on a scintillation counter. Inhibition of the enzymatic activity of CDK1 was measured by observing a reduced amount of ^33P-γ-ATP incorporated into the immobilized peptide. The VEGF-R kinase assay was carried out using the CDK kinase assay procedure except that the enzyme was replaced with the VEGF-R2 fusion protein containing a polyhistidine tag at the N-terminus followed by amino acids 786-1343 of the rat VEGF-R2 kinase domain (GenBank Accession #U93306).

[2] = system: HCT-116 colon carcinoma; test: Inhibition of cell proliferation (14C-thymidine incorporation), HCT-116; format: cell-based
Experimental: (§1) The ability of a test compound to inhibit the proliferation of cell growth was determined by measuring incorporation of ^14C-labelled thymidine into newly synthesized DNA within the cells. This method was used on cell lines derived from carcinomas originating from several tissues such as HeLa cervical adenocarcinoma (American Type Culture Collection (ATCC), Virginia, Cat. #CCL-2), A375 malignant melanoma (ATCC CRL-1619), HCT-116 colon carcinoma (CCL-247). In this way the effect of a compound on cell growth of cells with many different phenotypes can be determined. Cells were trypsinized and counted and 3000-8000 cells were added to each well of a 96-well CytoStar tissue culture treated scintillating microplate (Amersham #RPNQ0160) in complete medium in a volume of 100 μL. Cells were incubated for 24 hours in complete medium at 37° C. in an atmosphere containing 5% CO2.
(§2) Next, 1 μL of test compound in 100% DMSO was added to the wells of the plate. DMSO only was added to control wells. Cells were incubated for 24 more hours in complete medium at 37° C. in an atmosphere containing 5% CO2. Methyl ^14C-thymidine 56 mCi/mmol (NEN #NEC568 or Amersham #CFA532) was diluted in complete medium and 0.2 uCi/well was added to each well of the CytoStar plate in a volume of 20 μl. The plate was incubated for 24 hours at 37° C. plus 5% CO2 in drug plus ^14C-thymidine. The contents of the plate discarded into a ^14C radioactive waste container by inverting the plate and the plate was washed twice with 200 μL PBS.
(§3) 200 μL of PBS is added to each well. The top of the plate was sealed with a transparent plate sealer and a white plate backing sealer (Packard #6005199) was applied to the bottom of the plate. The degree of methyl ^14C-thymidine incorporation was quantified on a Packard Top Count.

[3] = biological target: T2, Aurora-A (Mus musculus, UniProt P97477); test: Aurora-A Screening Assay; format: biochemical, murine; settings: 33P-γ-ATP incorporation, 10 μM ATP
T2 construct: made in house; host or cells: sf9 insect cells
T2 sequence (P97477 1-395): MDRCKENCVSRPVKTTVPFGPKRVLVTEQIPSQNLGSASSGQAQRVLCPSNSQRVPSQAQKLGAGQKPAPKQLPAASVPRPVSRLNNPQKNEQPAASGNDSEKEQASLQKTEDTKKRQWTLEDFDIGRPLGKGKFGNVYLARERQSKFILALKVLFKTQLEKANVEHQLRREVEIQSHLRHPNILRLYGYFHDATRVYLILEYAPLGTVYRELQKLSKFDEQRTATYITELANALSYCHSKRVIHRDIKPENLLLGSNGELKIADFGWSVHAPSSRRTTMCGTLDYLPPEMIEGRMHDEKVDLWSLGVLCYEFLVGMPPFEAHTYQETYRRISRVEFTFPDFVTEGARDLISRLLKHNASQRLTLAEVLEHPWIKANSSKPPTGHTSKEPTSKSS
Experimental: (§4) A kinase reaction mixture was prepared containing 50 mM Tris-HCl pH=8, 10 mM MgCl2, 0.1 mM […], 1 mM DTT, 10 μM ATP, 0.025 μM biotinylated histone-HI peptide substrate and […] per well ^33P-γ-ATP (2000-3000 Ci/mmol). 70 μL of the kinase reaction mixture was dispensed into the well of a streptavidin coated FlashPlate™ (Cat. # SMP103, NEN, Boston, Mass.). Then 1 μL of test compound stock in 100% DMSO was added to the wells resulting in a final concentration of 1% DMSO in the reaction with a 100 μL final reaction volume.
(§5) The CDK1:Cyclin-B protein was then diluted in 50 mM Tris-HCl pH=8.0, 0.1% BSA at a concentration of 1 ng per μL and 30 μL (30 ng enzyme per test well) was added to each well to initiate the reaction. The reaction was incubated for one hour at 30° C. At the end of the 1 h incubation, the reaction was terminated by aspirating the mixture from the plate and washing the wells twice with PBS containing 100 mM EDTA. The histone-H1 biotinylated peptide substrate became immobilized on the Flashplate™ and the incorporation of ^33P-γ-ATP was measured by reading the plate on a scintillation counter. Inhibition of the enzymatic activity of CDK1 was measured by observing a reduced amount of ^33P-γ-ATP incorporated into the immobilized peptide.
The Aurora-A kinase assay was carried out using the CDK kinase assay procedure except that the enzyme was replaced with the full length protein encoding the murine Aurora-A (Accession# GB BC014711) expressed and purified from sf9 insect cells.
(§6) • VEGF-R2, HER2 and (Biotin)[…]-Amide • RET kinases • CDK1 (Biotin)[…]-Amide • Aurora-A kinase Biotin-[…]-Amide

[4] = system: HeLa cervical adenocarcinoma; test: Inhibition of cell proliferation (14C-thymidine incorporation), HeLa; format: cell-based;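 further: HeLa cells in 96-well scintillating plates, compound for 24 h then 24 h more with 14C-thymidine, counting label built into new DNA against DMSO-only control wells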
[5] = biological target: T3, CDK1:Cyclin-B (Homo sapiens, UniProt P06493); test: CDK1 Screening Assay; format: biochemical; settings: 33P-γ-ATP incorporation, 10 μM ATP
T3 construct: purchased New England Biolabs, Beverly, Mass; 6020; host or cells: insect cells
Experimental: as §4, §5
The CDK1 used was isolated from insect cells expressing both the human CDK1 catalytic subunit and its positive regulatory subunit cyclin B (New England Biolabs, Beverly, Mass., Cat. #6020).
as §6

[6] = system: A375 malignant melanoma; test: Inhibition of cell proliferation (14C-thymidine incorporation), A375; format: cell-based, human
Experimental: as §1, §2, §3

T3 sequence (P06493 whole entry): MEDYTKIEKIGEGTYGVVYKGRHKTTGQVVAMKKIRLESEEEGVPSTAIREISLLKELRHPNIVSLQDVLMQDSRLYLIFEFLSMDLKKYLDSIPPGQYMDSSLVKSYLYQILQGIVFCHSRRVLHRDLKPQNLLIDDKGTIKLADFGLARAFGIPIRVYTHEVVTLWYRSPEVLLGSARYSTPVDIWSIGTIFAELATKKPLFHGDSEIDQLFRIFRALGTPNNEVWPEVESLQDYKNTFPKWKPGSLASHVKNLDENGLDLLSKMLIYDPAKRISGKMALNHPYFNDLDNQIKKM
T3 sequence (P14635 whole entry partner): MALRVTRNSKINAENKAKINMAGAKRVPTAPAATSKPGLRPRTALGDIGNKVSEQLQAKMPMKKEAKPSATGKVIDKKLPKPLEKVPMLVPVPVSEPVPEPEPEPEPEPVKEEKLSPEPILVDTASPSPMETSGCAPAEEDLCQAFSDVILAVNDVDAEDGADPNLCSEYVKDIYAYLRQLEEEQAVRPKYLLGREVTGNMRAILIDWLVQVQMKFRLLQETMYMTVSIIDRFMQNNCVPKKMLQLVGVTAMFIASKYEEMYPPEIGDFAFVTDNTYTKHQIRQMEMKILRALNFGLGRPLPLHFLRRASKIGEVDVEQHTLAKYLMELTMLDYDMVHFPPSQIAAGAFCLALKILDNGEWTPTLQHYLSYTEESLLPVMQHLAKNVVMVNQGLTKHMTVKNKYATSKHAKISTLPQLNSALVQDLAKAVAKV
T1 sequence (O08775 786-1343): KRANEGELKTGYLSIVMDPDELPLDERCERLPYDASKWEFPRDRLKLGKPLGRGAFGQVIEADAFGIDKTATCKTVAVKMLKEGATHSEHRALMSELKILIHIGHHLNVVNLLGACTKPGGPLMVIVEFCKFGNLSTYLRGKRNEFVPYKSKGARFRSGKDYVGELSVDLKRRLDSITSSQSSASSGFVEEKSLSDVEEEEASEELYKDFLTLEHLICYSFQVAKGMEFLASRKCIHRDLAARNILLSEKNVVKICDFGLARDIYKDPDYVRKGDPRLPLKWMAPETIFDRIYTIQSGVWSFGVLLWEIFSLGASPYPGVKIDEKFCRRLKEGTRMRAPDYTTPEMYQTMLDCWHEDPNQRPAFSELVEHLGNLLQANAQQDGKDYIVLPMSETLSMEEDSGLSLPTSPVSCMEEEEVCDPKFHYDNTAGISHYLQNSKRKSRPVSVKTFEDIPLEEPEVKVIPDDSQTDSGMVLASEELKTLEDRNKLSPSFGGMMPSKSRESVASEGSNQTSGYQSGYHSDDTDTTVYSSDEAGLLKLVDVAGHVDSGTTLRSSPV

| SMILES | IC50 [1] | IC50 ([2]; Homo sapiens, HCT-116, HCT116) | IC50 [3] | IC50 ([4]; Homo sapiens) | IC50 [5] | IC50 ([6]; Homo sapiens, A-375) | IC50 ([2]; HCT116) | IC50 [4] | IC50 [6] |
| --- | --- | --- | --- | --- | --- | --- | --- | --- | --- |
| CS(=O)(=O)n1cc(-c2ccnc(NC3CCCCC3)n2)c2cccnc21 [Cpd 67, Cyclohexyl-[4-(1-methanesulfonyl-1H-pyrrolo[2,3-b]pyridin-3-yl)pyrimidin-2-yl]-amine] | 1 µM | 0.298 µM | 2.36 µM | 0.393 µM | 0.128 µM | 0.504 µM | – | – | – |
| CN1CCC(Nc2nccc(-c3c[nH]c4ncccc34)n2)CC1 [Cpd 61, (1-Methylpiperidin-4-yl)-[4-(1H-pyrrolo[2,3-b]pyridin-3-yl)-pyrimidin-2-yl]-amine] | 10 µM | 0.0153 µM | 2.25 µM | 0.026 µM | 0.129 µM | 0.0214 µM | – | – | – |
| CN(C)CCn1cc(-c2ccnc(NC3CCCCC3)n2)c2cccnc21 [Cpd 69, Cyclohexyl-{4-[1-(2-dimethylaminoethyl)-1H-pyrrolo[2,3-b]pyridin-3-yl]-pyrimidin-2-yl}-amine] | – | 13.4 µM | – | 8.9 µM | 10.4 µM | 7.69 µM | – | – | – |
| O[C@H]1CC[C@H](Nc2nccc(-c3c[nH]c4ncccc34)n2)CC1 [Cpd 18, trans-4-[4-(1H-Pyrrolo[2,3-b]pyridin-3-yl)-pyrimidin-2-ylamino]-cyclohexanol] | 1.79 µM | 0.00225 µM | 0.335 µM | 0.00161 µM | 0.0076 µM | 0.00177 µM | – | – | – |
| Cc1ccccc1Nc1nccc(-c2c[nH]c3ncccc23)n1 [Cpd 8, [4-(1H-Pyrrolo[2,3-b]pyridin-3-yl)-pyrimidin-2-yl]-o-tolyl-amine] | 0.57 µM | 0.024 µM | 0.301 µM | – | 0.0037 µM | 0.024 µM | – | – | – |
| CNCCn1cc(-c2ccnc(N[C@H]3CC[C@H](O)CC3)n2)c2cccnc21 [Cpd 73, trans-4-{4-[1-(2-Methylaminoethyl)-1H-pyrrolo[2,3-b]pyridin-3-yl]-pyrimidin-2-ylamino}-cyclohexanol] | – | 3.51 µM | – | 4.16 µM | 7.02 µM | 3.95 µM | – | – | – |
| CN(C)CCn1cc(-c2ccnc(N[C@H]3CC[C@H](O)CC3)n2)c2cccnc21 [Cpd 74, trans-4-{4-[1-(2-Dimethylaminoethyl)-1H-pyrrolo[2,3-b]pyridin-3-yl]-pyrimidin-2-ylamino}-cyclohexanol] | – | 3.76 µM | – | 4.53 µM | 3.89 µM | 3.02 µM | – | – | – |
| Cc1cccc(Nc2nccc(-c3c[nH]c4ncccc34)n2)c1 [Cpd 9, [4-(1H-Pyrrolo[2,3-b]pyridin-3-yl)-pyrimidin-2-yl]-m-tolyl-amine] | 0.0967 µM | 0.25 µM | 0.136 µM | – | 0.057 µM | 0.34 µM | – | – | – |
| OCCn1cc(-c2ccnc(NC3CCCCC3)n2)c2cccnc21 [Cpd 70, Cyclohexyl-{4-[1-(2-hydroxyethyl)-1H-pyrrolo[2,3-b]pyridin-3-yl]-pyrimidin-2-yl}-amine] | – | 3.97 µM | – | 6.29 µM | 3.21 µM | 5.93 µM | – | – | – |
| Cc1cc(OCCN(C)C)ccc1Nc1nccc(-c2c[nH]c3ncccc23)n1 [Cpd 81, [4-(2-Dimethylamino-ethoxy)-2-methyl-phenyl]-[4-(1H-pyrrolo[2,3-b]pyridin-3-yl)-pyrimidin-2-yl]-amine] | – | 4.54 µM | – | 13.2 µM | 1.87 µM | 2.81 µM | – | – | – |
| CNCCOc1ccc(Nc2nccc(-c3c[nH]c4ncccc34)n2)c(C)c1 [Cpd 80, [4-(2-Methylamino-ethoxy)-2-methyl-phenyl]-[4-(1H-pyrrolo[2,3-b]pyridin-3-yl)-pyrimidin-2-yl]-amine] | 10 µM | 3.87 µM | – | 2.58 µM | 2.31 µM | 4.54 µM | – | – | – |
| CN(C)CC(O)Cn1cc(-c2ccnc(N[C@H]3CC[C@H](O)CC3)n2)c2cccnc21 (relative stereo) [Cpd 76, trans-4-{4-[1-(3-Dimethylamino-2-hydroxy-propyl)-1H-pyrrolo[2,3-b]pyridin-3-yl]-pyrimidin-2-ylamino}-cyclohexanol] | 10 µM | 0.157 µM | – | 0.21 µM | 1.35 µM | 0.298 µM | – | – | – |
| Clc1ccc(Nc2nccc(-c3c[nH]c4ncccc34)n2)c(Cl)c1 [Cpd 36, (2,4-Dichlorophenyl)-[4-(1H-pyrrolo[2,3-b]pyridin-3-yl)-pyrimidin-2-yl]-amine] | – | 0.277 µM | 1 µM | 0.467 µM | 0.0223 µM | 0.448 µM | – | – | – |
| O=S(=O)(c1ccccc1)n1cc(-c2ccnc(N[C@H]3CC[C@H](O)CC3)n2)c2cccnc21 [Cpd 75, trans-4-[4-(1-Benzenesulfonyl-1H-pyrrolo[2,3-b]pyridin-3-yl)-pyrimidin-2-ylamino]-cyclohexanol] | – | – | 10 µM | – | 2.02 µM | – | 1.58 µM | 1.99 µM | 2.81 µM |
| Cc1cc(CCO)ccc1Nc1nccc(-c2c[nH]c3ncccc23)n1 [Cpd 44] | 0.493 µM | 0.00398 µM | 0.142 µM | 0.011 µM | – | 0.00845 µM | – | – | – |
| Cn1cc(-c2ccnc(NC3CCCCC3)n2)c2cccnc21 [Cpd 66, Cyclohexyl-[4-(1-methyl-1H-pyrrolo[2,3-b]pyridin-3-yl)pyrimidin-2-yl]-amine] | – | ≥ 10 µM | – | 52.2 µM | – | ≥ 10 µM | – | – | – |
| Cn1cc(-c2ccnc(N[C@H]3CC[C@H](O)CC3)n2)c2cccnc21 [Cpd 71, trans-4-[4-(1-Methyl-1H-pyrrolo[2,3-b]pyridin-3-yl)-pyrimidin-2-ylamino]-cyclohexanol] | – | 4.46 µM | – | 9.51 µM | 1.65 µM | 7.15 µM | – | – | – |
